The experiment has as its system TNF-alpha release in THP-1 cells. Briefly: LPS-induced TNF-alpha release in THP-1 cells. The format is cell-based. As to conditions: Homo sapiens, THP-1, LPS-stimulated THP-1 cells; read-out: 50% inhibition in the LPS-induced TNF-alpha release in THP-1 cells assay at concentrations within the range. In short, it runs like this: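 Undifferentiated THP-1 monocytes (1×10^6 cells/ml, 1% FCS) preincubated 1 h at 37° C with compound (1×10^−9 to 1×10^−6 M, 0.3% DMSO), then stimulated with LPS (20 μg/ml) for 18 h. Supernatant TNF-alpha measured by sandwich ELISA (TMB read-out), interpolated from a log/log standard curve (0.125-16 ng/ml).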
As to `Cc1ccc(-n2nc(C(C)(C)C)cc2NC(=O)Nc2ccc(CC3CCN(C(=O)c4cnc5ccccc5c4)CC3)cc2)cc1` [Compound A384, 1-(5-tert-Butyl-2-p-tolyl-2H-pyrazol-3-yl)-3-{4-[1-(quinoline-3-carbonyl)-piperidin-4-ylmethyl]-phenyl}-urea], the IC50 lay within 10 to 500 nM.
Under `Cc1ccc(-n2nc(C(C)(C)C)cc2NC(=O)Nc2ccc(CC3CCN(C(=O)c4ccnc5ccccc45)CC3)cc2)cc1` [Compound A385, 1-(5-tert-Butyl-2-p-tolyl-2H-pyrazol-3-yl)-3-{4-[1-(quinoline-4-carbonyl)-piperidin-4-ylmethyl]-phenyl}-urea] stands 10 to 500 nM.
To `Cc1ccc(-n2nc(C(C)(C)C)cc2NC(=O)Nc2ccc(CC3CCN(C(=O)Cc4cccs4)CC3)cc2)cc1` [Compound A388, 1-(5-tert-Butyl-2-p-tolyl-2H-pyrazol-3-yl)-3-{4-[1-(2-thiophen-2-yl-acetyl)-piperidin-4-ylmethyl]-phenyl}-urea] belongs 10 to 500 nM; to `Cc1ccc(-n2nc(C(C)(C)C)cc2NC(=O)Nc2ccc(CC3CCN(C(=O)Cc4ccsc4)CC3)cc2)cc1` [Compound A389, 1-(5-tert-Butyl-2-p-tolyl-2H-pyrazol-3-yl)-3-{4-[1-(2-thiophen-3-yl-acetyl)-piperidin-4-ylmethyl]-phenyl}-urea], 10 to 500 nM; to `CC(=O)c1ccc(NC(=O)N2CCC(Cc3cccc(NC(=O)Nc4cc(C(C)(C)C)nn4-c4ccc(C)cc4)c3)CC2)cc1` [Compound A403, 4-{3-[3-(5-tert-Butyl-2-p-tolyl-2H-pyrazol-3-yl)-ureido]-benzyl}-piperidine-1-carboxylic acid (4-acetyl-phenyl)-amide], 10 to 500 nM.
Under `Cc1ccc(-n2nc(C(C)(C)C)cc2NC(=O)Nc2ccc(CC3CCN(C(=O)Nc4ccc5c(c4)OCO5)CC3)cc2)cc1` [Compound A429, 4-{4-[3-(5-tert-Butyl-2-p-tolyl-2H-pyrazol-3-yl)-ureido]-benzyl}-piperidine-1-carboxylic acid benzo[1,3]dioxol-5-ylamide] stands 10 to 500 nM.
For `Cc1ccc(-n2nc(C(C)(C)C)cc2NC(=O)Nc2ccc(CC3CCN(C(=O)Nc4ccc(N(C)C)cc4)CC3)cc2)cc1` [Compound A450, 4-{4-[3-(5-tert-Butyl-2-p-tolyl-2H-pyrazol-3-yl)-ureido]-benzyl}-piperidine-1-carboxylic acid (4-dimethylamino-phenyl)-amide], the IC50 lay in the range of 10 to 500 nM.
To `COc1ccc(OC)c(S(=O)(=O)N2CCC(Cc3ccc(NC(=O)Nc4cc(C(C)(C)C)nn4-c4ccc(C)cc4)cc3)CC2)c1` [Compound A564, 1-(5-tert-Butyl-2-p-tolyl-2H-pyrazol-3-yl)-3-{4-[1-(2,5-dimethoxy-benzenesulfonyl)-piperidin-4-ylmethyl]-phenyl}-urea] belongs 10 to 500 nM; to `Cc1ccc(-n2nc(C(C)(C)C)cc2NC(=O)Nc2ccc(CC3CCN(S(=O)(=O)c4ccccc4Cl)CC3)cc2)cc1` [Compound A567, 1-(5-tert-Butyl-2-p-tolyl-2H-pyrazol-3-yl)-3-{4-[1-(2-chloro-benzenesulfonyl)-piperidin-4-ylmethyl]-phenyl}-urea], 10 to 500 nM.
To `COc1ccc(C)cc1S(=O)(=O)N1CCC(Cc2ccc(NC(=O)Nc3cc(C(C)(C)C)nn3-c3ccc(C)cc3)cc2)CC1` [Compound A592, 1-(5-tert-Butyl-2-p-tolyl-2H-pyrazol-3-yl)-3-{4-[1-(2-methoxy-5-methyl-benzenesulfonyl)-piperidin-4-ylmethyl]-phenyl}-urea] belongs 10 to 500 nM; to `CCS(=O)(=O)N1CCC(Cc2ccc(NC(=O)Nc3cc(C(C)(C)C)nn3-c3ccc(C)cc3)cc2)CC1` [Compound A606, 1-(5-tert-Butyl-2-p-tolyl-2H-pyrazol-3-yl)-3-[4-(1-ethanesulfonyl-piperidin-4-ylmethyl)-phenyl]-urea], 10 to 500 nM; to `COC(=O)c1ccccc1S(=O)(=O)N1CCC(Cc2ccc(NC(=O)Nc3cc(C(C)(C)C)nn3-c3ccc(C)cc3)cc2)CC1` [Compound A609, 2-(4-{4-[3-(5-tert-Butyl-2-p-tolyl-2H-pyrazol-3-yl)-ureido]-benzyl}-piperidine-1-sulfonyl)-benzoic acid methyl ester], 10 to 500 nM.
Under `COc1ccc2c(CC(=O)N3C4CCC3CC(Cc3cccc(NC(=O)Nc5cc(C(C)(C)C)nn5-c5ccc(C)cc5)c3)C4)coc2c1` (centres unmarked) [Compound A618, 1-(5-tert-Butyl-2-p-tolyl-2H-pyrazol-3-yl)-3-(3-{8-[2-(6-methoxy-benzofuran-3-yl)-acetyl]-8-aza-bicyclo[3.2.1]oct-3-ylmethyl}-phenyl)-urea] stands 10 to 500 nM; under `Cc1ccc(-n2nc(C(C)(C)C)cc2NC(=O)Nc2cccc(CC3CC4CCC(C3)N4C(=O)Cc3cn(C)c4ccccc34)c2)cc1` (centres unmarked) [Compound A641, 1-(5-tert-Butyl-2-p-tolyl-2H-pyrazol-3-yl)-3-(3-{8-[2-(1-methyl-1H-indol-3-yl)-acetyl]-8-aza-bicyclo[3.2.1]oct-3-ylmethyl}-phenyl)-urea], 10 to 500 nM; under `Cc1ccc(-n2nc(C(C)(C)C)cc2NC(=O)Nc2cccc(CC3CC4CCC(C3)N4C(=O)Cc3ccc(F)c(F)c3)c2)cc1` (centres unmarked) [Compound A719, 1-(5-tert-Butyl-2-p-tolyl-2H-pyrazol-3-yl)-3-(3-{8-[2-(3,4-difluoro-phenyl)-acetyl]-8-aza-bicyclo[3.2.1]oct-3-ylmethyl}-phenyl)-urea], 10 to 500 nM.
Regarding `Cc1ccc(-n2nc(C(C)(C)C)cc2NC(=O)Nc2cccc(CC3CC4CCC(C3)N4C(=O)Cc3ccc(F)cc3F)c2)cc1` (centres unmarked) [Compound A720, 1-(5-tert-Butyl-2-p-tolyl-2H-pyrazol-3-yl)-3-(3-{8-[2-(2,4-difluoro-phenyl)-acetyl]-8-aza-bicyclo[3.2.1]oct-3-ylmethyl}-phenyl)-urea], the IC50 fell in the range of 10 to 500 nM.
Turning to `Cc1ccc(-n2nc(C(C)(C)C)cc2NC(=O)Nc2cccc(CC3CC4CCC(C3)N4C(=O)Cc3ccccc3F)c2)cc1` (centres unmarked) [Compound A761, 1-(5-tert-Butyl-2-p-tolyl-2H-pyrazol-3-yl)-3-(3-{8-[2-(2-fluoro-phenyl)-acetyl]-8-aza-bicyclo[3.2.1]oct-3-ylmethyl}-phenyl)-urea], the IC50 lay within 10 to 500 nM.
To `CC(=O)NCC(=O)N1C2CCC1CC(Cc1cccc(NC(=O)Nc3cc(C(C)(C)C)nn3-c3ccc(C)cc3)c1)C2` (centres unmarked) [Compound A766, N-[2-(3-{3-[3-(5-tert-Butyl-2-p-tolyl-2H-pyrazol-3-yl)-ureido]-benzyl}-8-aza-bicyclo[3.2.1]oct-8-yl)-2-oxo-ethyl]-acetamide] belongs 10 to 500 nM; to `COc1cccc(C(=O)N2C3CCC2CC(Cc2cccc(NC(=O)Nc4cc(C(C)(C)C)nn4-c4ccc(C)cc4)c2)C3)c1OC` (centres unmarked) [Compound A786, 1-(5-tert-Butyl-2-p-tolyl-2H-pyrazol-3-yl)-3-{3-[8-(2,3-dimethoxy-benzoyl)-8-aza-bicyclo[3.2.1]oct-3-ylmethyl]-phenyl}-urea], 10 to 500 nM; to `COc1cccc(CC(=O)N2C3CCC2CC(Cc2ccc(NC(=O)Nc4cc(C(C)(C)C)nn4-c4ccc(C)cc4)cc2)C3)c1OC` (centres unmarked) [Compound A1312, 1-(5-tert-Butyl-2-p-tolyl-2H-pyrazol-3-yl)-3-(4-{8-[2-(2,3-dimethoxy-phenyl)-acetyl]-8-aza-bicyclo[3.2.1]oct-3-ylmethyl}-phenyl)-urea], 10 to 500 nM.

(Values after patent US7541368B2, “Pyrazoles as inhibitors of tumor necrosis factor” (Aventis Pharmaceuticals Inc., priority 2003, dated 2009).)
